# Molecular target: T1, P2X purinoceptor 7 (Homo sapiens, UniProt Q99572)
# T1 sequence (Q99572 whole entry): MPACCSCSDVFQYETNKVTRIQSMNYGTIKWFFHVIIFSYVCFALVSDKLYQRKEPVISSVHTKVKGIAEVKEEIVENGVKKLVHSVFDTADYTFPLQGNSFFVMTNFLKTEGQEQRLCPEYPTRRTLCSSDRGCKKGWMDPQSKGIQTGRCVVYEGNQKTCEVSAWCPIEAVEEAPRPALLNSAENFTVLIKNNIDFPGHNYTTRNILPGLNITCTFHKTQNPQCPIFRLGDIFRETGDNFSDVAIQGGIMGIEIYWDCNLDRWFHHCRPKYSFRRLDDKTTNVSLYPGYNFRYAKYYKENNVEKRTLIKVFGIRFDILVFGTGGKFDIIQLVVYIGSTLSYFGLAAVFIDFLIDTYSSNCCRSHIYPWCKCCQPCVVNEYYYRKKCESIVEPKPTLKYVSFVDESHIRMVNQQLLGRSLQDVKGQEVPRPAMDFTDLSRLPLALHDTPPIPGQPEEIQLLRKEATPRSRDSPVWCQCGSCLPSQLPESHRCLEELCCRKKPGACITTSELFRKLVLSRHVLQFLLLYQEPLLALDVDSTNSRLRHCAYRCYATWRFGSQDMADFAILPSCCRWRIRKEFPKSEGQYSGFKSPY
# Test: SUPPLEMENTARY: Inhibition of human P2X7 receptor assessed as inhibition of ethidium bromide accumulation. Same assay as CHEMBL1103860
row,IC50,SMILES
1,158 nM,CC(C)c1n[nH]c(C(C)C)c1CC(=O)NCc1ccc(F)c(F)c1F
2,2.51 nM,Cc1n[nH]c(C(F)(F)F)c1CC(=O)NCc1cccc(C(F)(F)F)c1Cl
3,50.1 nM,Cc1noc(C)c1CC(=O)NCc1ccc(F)cc1Br
4,63.1 nM,Cc1n[nH]c(C)c1CC(=O)NCc1ccc(F)c(F)c1F
5,316 nM,Cc1noc(C)c1CC(=O)NCc1ccc(Cl)c(Cl)c1
6,31.6 nM,Cc1noc(C)c1CC(=O)NCc1cccc(C(F)(F)F)c1F
7,25.1 nM,Cc1noc(C)c1CC(=O)NCc1cccc(Cl)c1C
8,31.6 nM,Cc1n[nH]c(C)c1CC(=O)NCc1c(Cl)cccc1Cl
9,1000 nM,Cc1noc(C)c1CC(=O)NCc1cccc(F)c1C
10,794 nM,Cc1noc(C)c1CC(=O)NCc1ccc(Cl)cc1
11,398 nM,Cc1noc(C)c1CC(=O)NCc1ccc(C(F)(F)F)c(F)c1
12,158 nM,Cc1[nH]nc(C(C)(C)C)c1CC(=O)NCc1ccc(F)cc1Cl
13,158 nM,CC(C)c1noc(C(C)C)c1CC(=O)NCc1ccc(F)cc1Cl
14,158 nM,Cc1ccc(CNC(=O)Cc2c(C)n[nH]c2C)c(C)c1
15,398 nM,Cc1n[nH]c(C)c1CC(=O)NCc1ccc(C(F)(F)F)cc1
16,316 nM,Cc1n[nH]c(C)c1CC(=O)NCc1cc(Cl)ccc1Cl
17,398 nM,Cc1n[nH]c(C)c1CC(=O)NCc1cc(F)ccc1Cl
18,31.6 nM,Cc1noc(C)c1CC(=O)NCc1ccc(F)c(F)c1Cl
19,100 nM,Cc1n[nH]c(C)c1CC(=O)N[C@H]1CCCc2ccccc21
20,1000 nM,Cc1n[nH]c(C)c1CC(=O)NCc1cc(Cl)cc(Cl)c1
21,31.6 nM,Cc1noc(C)c1CC(=O)NCc1cccc(Cl)c1Cl
22,5.01 nM,Cc1n[nH]c(C)c1CC(=O)NCc1cccc(Cl)c1C
23,251 nM,Cc1n[nH]c(C)c1CC(=O)NCc1ccccc1Br
24,501 nM,Cc1noc(C)c1CC(=O)NCc1ccc(F)cc1F
25,200 nM,Cc1cccc(CNC(=O)Cc2c(C)noc2C)c1C
26,200 nM,Cc1noc(C)c1CC(=O)NCc1cccc(Cl)c1F
27,100 nM,Cc1noc(C)c1CC(=O)NCc1ccccc1Cl

row,IC50,SMILES
1,794 nM,Cc1ccc(CNC(=O)Cc2c(C)noc2C)c(F)c1F
2,5.01 nM,Cc1n[nH]c(C(F)(F)F)c1CC(=O)NCc1ccc(F)c(F)c1Cl
3,251 nM,Cc1ccc(CNC(=O)Cc2c(C)noc2C)c(C)c1
4,63.1 nM,Cc1noc(C)c1CC(=O)NCc1c(Cl)cccc1Cl
5,501 nM,Cc1noc(C)c1CC(=O)NCc1ccccc1Br
6,39.8 nM,CCc1noc(CC)c1CC(=O)NCc1ccc(F)cc1Cl
7,200 nM,Cc1ccc(F)c(CNC(=O)Cc2c(C)noc2C)c1Cl
8,15.8 nM,Cc1cccc(Cl)c1CNC(=O)Cc1c(C)n[nH]c1C
9,158 nM,Cc1noc(C)c1CC(=O)NCc1ccc(F)c(F)c1F
10,200 nM,Cc1noc(C)c1CC(=O)NCc1ccc(F)cc1C(F)(F)F
11,158 nM,Cc1n[nH]c(C)c1CC(=O)NCc1c(F)cccc1Cl
12,158 nM,Cc1ccc(CNC(=O)Cc2c(C)noc2C)c(F)c1
13,31.6 nM,CCc1n[nH]c(CC)c1CC(=O)NCc1ccc(F)c(F)c1F
14,79.4 nM,Cc1ccc(F)c(CNC(=O)Cc2c(C)n[nH]c2C)c1Cl
15,25.1 nM,Cc1cc(Cl)ccc1CNC(=O)Cc1c(C)noc1C
16,398 nM,Cc1noc(C)c1CC(=O)NCc1c(F)cccc1Cl
17,631 nM,Cc1ccc(Cl)c(CNC(=O)Cc2c(C)n[nH]c2C)c1F
18,200 nM,Cc1n[nH]c(C)c1CC(=O)NCc1ccc(Cl)c(Cl)c1
19,501 nM,Cc1ccccc1CNC(=O)Cc1c(C)noc1C
20,50.1 nM,Cc1n[nH]c(C)c1CC(=O)NCc1ccc(Br)cc1F
21,158 nM,Cc1noc(C)c1CC(=O)NCc1ccc(Cl)c(C(F)(F)F)c1
22,39.8 nM,Cc1noc(C)c1CC(=O)NCc1ccc(F)c(Cl)c1F
23,158 nM,Cc1ccccc1CNC(=O)Cc1c(C)n[nH]c1C
24,100 nM,Cc1cc(F)ccc1CNC(=O)Cc1c(C)noc1C
25,50.1 nM,Cc1n[nH]c(C)c1CC(=O)NCc1ccc(F)c(C(F)(F)F)c1
26,10 nM,Cc1noc(C)c1CC(=O)NCc1cccc(C(F)(F)F)c1C
27,25.1 nM,Cc1cccc(Cl)c1CNC(=O)Cc1c(C)noc1C

# From ChEMBL document CHEMBL2094195, “Structure-activity relationship data for a series of N-(phenylmehtyl)-2-(1H-pyrazol-4-yl)acetamide and N-(phenylmethyl)2-(4-isoxazolyl) acetamide antagonists of the P2X7 receptor (Supplementary Bioactivity Data for publication CHEMBL1157114)”
